One assay deals with T1, Glucocorticoid receptor (Homo sapiens, UniProt P04150).
T1 sequence (P04150 whole entry): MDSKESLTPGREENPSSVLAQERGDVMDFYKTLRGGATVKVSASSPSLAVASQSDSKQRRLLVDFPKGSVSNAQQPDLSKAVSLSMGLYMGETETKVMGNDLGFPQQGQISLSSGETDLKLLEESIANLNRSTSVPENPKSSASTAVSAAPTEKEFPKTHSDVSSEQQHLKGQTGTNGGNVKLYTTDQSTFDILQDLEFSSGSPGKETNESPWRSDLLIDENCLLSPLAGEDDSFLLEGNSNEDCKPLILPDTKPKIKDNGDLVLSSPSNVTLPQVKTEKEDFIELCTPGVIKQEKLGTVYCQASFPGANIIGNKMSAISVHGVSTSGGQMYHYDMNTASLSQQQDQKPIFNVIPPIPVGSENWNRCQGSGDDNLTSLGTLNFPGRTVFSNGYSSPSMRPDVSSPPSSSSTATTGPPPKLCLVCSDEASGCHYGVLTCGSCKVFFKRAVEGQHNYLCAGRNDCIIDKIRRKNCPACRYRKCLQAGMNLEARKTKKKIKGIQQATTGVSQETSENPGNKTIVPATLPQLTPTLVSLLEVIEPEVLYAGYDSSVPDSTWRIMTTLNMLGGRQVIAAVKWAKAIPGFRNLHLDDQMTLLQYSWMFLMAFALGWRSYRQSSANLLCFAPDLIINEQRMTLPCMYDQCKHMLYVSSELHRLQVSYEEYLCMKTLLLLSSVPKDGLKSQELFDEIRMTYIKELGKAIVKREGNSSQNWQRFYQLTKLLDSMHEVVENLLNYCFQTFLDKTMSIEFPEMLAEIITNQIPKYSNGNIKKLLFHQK
Conditions: hela s3.

Assay [1] can be described thus: DRUGMATRIX: GABAA, Flunitrazepam, Central radioligand binding (ligand: [3H] Flunitrazepam). It is filed as cell membranes, Rattus norvegicus, Wistar, Brain, Membrane. Conditions: Not Active = under 50% inhibition at 10 µM.
Assay [2] concerns the target T2, Alpha-2A adrenergic receptor (Homo sapiens, UniProt P08913). Also: in other assays of this panel Not Active means under 50% inhibition at 10 µM.
T2 sequence (P08913 whole entry): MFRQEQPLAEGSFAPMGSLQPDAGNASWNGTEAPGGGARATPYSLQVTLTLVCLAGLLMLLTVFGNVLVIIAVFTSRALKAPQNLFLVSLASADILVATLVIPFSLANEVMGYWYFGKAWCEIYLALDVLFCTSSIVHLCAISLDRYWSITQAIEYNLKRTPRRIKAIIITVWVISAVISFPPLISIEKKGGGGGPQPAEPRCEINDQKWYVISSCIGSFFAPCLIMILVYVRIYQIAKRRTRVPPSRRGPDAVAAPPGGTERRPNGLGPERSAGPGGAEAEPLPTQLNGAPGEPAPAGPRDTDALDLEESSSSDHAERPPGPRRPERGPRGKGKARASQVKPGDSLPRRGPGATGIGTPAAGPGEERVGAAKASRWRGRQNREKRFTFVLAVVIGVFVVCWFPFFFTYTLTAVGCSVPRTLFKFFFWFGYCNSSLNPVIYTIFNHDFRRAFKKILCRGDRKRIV
It is filed as cell membranes, Sf9, Membrane. Conditions: for Ki: read-out: Ki.

Assay [3] concerns the target Sodium-dependent dopamine transporter (Homo sapiens, UniProt Q01959). Kind of assay: DRUGMATRIX: Dopamine Transporter radioligand binding (ligand: [125I] RTI-55). Conditions: Not Active = under 50% inhibition at 10 µM; for Ki: read-out: Ki. It is filed as cell membranes, CHO-K1, Membrane.
A further assay addresses D(3) dopamine receptor (Homo sapiens, UniProt P35462). In words: DRUGMATRIX: Dopamine D3 radioligand binding (ligand: [3H] Spiperone). It is filed as cell membranes, CHO, Membrane. The conditions noted are these: for Ki: read-out: Ki.

Chain of D(3) dopamine receptor (P35462 whole entry): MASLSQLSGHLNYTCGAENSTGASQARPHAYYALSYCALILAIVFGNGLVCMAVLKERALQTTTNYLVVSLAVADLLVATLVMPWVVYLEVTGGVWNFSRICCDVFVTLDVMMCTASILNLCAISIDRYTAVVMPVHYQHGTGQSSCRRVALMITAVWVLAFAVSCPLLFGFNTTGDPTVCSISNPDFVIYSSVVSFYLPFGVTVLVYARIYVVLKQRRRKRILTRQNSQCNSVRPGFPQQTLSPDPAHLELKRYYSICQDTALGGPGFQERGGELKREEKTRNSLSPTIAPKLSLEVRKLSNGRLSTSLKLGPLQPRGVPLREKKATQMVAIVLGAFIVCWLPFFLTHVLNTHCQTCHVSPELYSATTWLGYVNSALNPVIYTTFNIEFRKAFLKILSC
Chain of Sodium-dependent dopamine transporter (Q01959 whole entry): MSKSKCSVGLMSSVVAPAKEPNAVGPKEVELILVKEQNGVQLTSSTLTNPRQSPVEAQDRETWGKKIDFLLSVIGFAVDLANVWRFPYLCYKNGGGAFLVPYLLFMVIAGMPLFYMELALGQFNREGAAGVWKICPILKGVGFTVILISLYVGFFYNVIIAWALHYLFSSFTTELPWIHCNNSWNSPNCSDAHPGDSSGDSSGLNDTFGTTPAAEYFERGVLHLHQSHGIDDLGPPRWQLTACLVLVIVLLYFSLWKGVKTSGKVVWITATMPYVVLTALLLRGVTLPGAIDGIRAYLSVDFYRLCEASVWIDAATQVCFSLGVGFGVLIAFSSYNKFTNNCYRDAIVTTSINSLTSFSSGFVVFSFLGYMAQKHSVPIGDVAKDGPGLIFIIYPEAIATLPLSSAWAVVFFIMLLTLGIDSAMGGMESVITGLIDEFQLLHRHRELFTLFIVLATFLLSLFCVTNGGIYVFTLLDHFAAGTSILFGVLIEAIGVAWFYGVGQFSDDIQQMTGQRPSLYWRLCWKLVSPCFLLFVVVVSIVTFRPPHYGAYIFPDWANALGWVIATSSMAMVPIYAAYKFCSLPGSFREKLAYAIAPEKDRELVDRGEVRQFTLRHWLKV

For `CC(C)(C)NC(=O)[C@@H]1C[C@@H]2CCCC[C@@H]2CN1C[C@@H](O)[C@H](Cc1ccccc1)NC(=O)[C@H](CC(N)=O)NC(=O)c1ccc2ccccc2n1`, the IC50 result on Glucocorticoid receptor was “Not Active”; in assay [1] it was “Not Active”; in assay [2] (sf9), “Not Active”; in assay [3] (read-out: IC50), 35.1 µM. For the same compound, the Ki entry in assay [1] is “Not Active”; in assay [3] it was 27.9 µM.

With `CC1(C)O[C@@H]2C[C@H]3[C@@H]4CCC5=CC(=O)C=C[C@]5(C)[C@@]4(F)[C@@H](O)C[C@]3(C)[C@]2(C(=O)CO)O1` [TRIAMCINOLONE ACETONIDE], the IC50 result (at D(3) dopamine receptor (cho); in assay [1]; in assay [2] (sf9); in assay [3] (cho-k1)) was “Not Active” throughout. Besides, in assay [1], the Ki result is “Not Active”.

For the compound `Cc1cccc(N(C)C(=S)Oc2ccc3ccccc3c2)c1` [TOLNAFTATE], the IC50 result (on Glucocorticoid receptor; on D(3) dopamine receptor (cho); in assay [1]; in assay [2] (sf9); in assay [3] (cho-k1)) was “Not Active” throughout. For the same compound, the Ki result in assay [1] was “Not Active”.

Turning to `C[C@@H]1CN(c2c(F)c(N)c3c(=O)c(C(=O)O)cn(C4CC4)c3c2F)C[C@H](C)N1` [SPARFLOXACIN], the IC50 entry (against Glucocorticoid receptor; on D(3) dopamine receptor (cho); in assay [1]; in assay [2] (sf9); in assay [3] (cho-k1)) was “Not Active” in each case. Also, the Ki entry in assay [1] was “Not Active”.

For the compound `Cn1ccnc1S` [METHIMAZOLE], the IC50 result (at D(3) dopamine receptor (cho); in assay [1]; in assay [2] (sf9); in assay [3] (cho-k1)) was “Not Active” in each case. Also, the Ki result in assay [1] is on record as “Not Active”.

Turning to `CN1CCN(CCCN2c3ccccc3Sc3ccc(Cl)cc32)CC1` [PROCHLORPERAZINE], the IC50 entry at Glucocorticoid receptor is “Not Active”.

For the compound `C=CCC1(C(C)CCC)C(=O)NC(=O)NC1=O` (centres undefined) [SECOBARBITAL], the IC50 result (on Glucocorticoid receptor; on D(3) dopamine receptor (cho); in assay [1]; in assay [2] (sf9); in assay [3] (cho-k1)) was “Not Active” each time. The Ki entry in assay [1] was “Not Active”.

`N[C@@H](Cc1ccc(N(CCCl)CCCl)cc1)C(=O)O`: the IC50 result (on Glucocorticoid receptor; on D(3) dopamine receptor (cho); in assay [1]; in assay [2] (sf9); in assay [3] (cho-k1)) was “Not Active” each time. For the same compound, in assay [1], the Ki result is “Not Active”.

Regarding `Nc1nc2ccc(OC(F)(F)F)cc2s1` [RILUZOLE], the IC50 entry (on Glucocorticoid receptor; on D(3) dopamine receptor (cho); in assay [1]; in assay [2] (sf9); in assay [3] (cho-k1)) was “Not Active” throughout. Further, the Ki result in assay [1] is listed as “Not Active”.

Regarding `N[C@@H]1[C@H]2CN(c3nc4c(cc3F)c(=O)c(C(=O)O)cn4-c3ccc(F)cc3F)C[C@@H]12` [TROVAFLOXACIN], the IC50 entry at Glucocorticoid receptor was “Not Active”; on D(3) dopamine receptor (cho), “Not Active”; in assay [1], “Not Active”; in assay [2] (sf9), “Not Active”; in assay [3] (read-out: IC50), 62.2 µM. Also, the Ki entry in assay [1] was “Not Active”; in assay [3], 49.4 µM.

In the case of `COc1c(C)c2c(c(O)c1C/C=C(\C)CCC(=O)O)C(=O)OC2` [MYCOPHENOLIC ACID], the IC50 entry (at D(3) dopamine receptor (cho); in assay [1]; in assay [2] (sf9); in assay [3] (cho-k1)) was “Not Active” each time. Further, the Ki entry in assay [1] was “Not Active”.

In the case of `Cc1c(C)c2c(c(C)c1O)CCC(C)(COc1ccc(CC3SC(=O)NC3=O)cc1)O2` (centres undefined) [TROGLITAZONE], the IC50 entry (at D(3) dopamine receptor (cho); in assay [1]; in assay [2] (sf9); in assay [3] (cho-k1)) was “Not Active” each time. Also, in assay [1], the Ki result is “Not Active”.

For `Cc1nc2n(c(=O)c1CCN1CCC(c3noc4cc(F)ccc34)CC1)CCCC2` [RISPERIDONE], the IC50 entry (against Glucocorticoid receptor; in assay [3] (cho-k1)) was “Not Active” throughout.

Turning to `N[C@@H](Cc1cc(I)c(Oc2ccc(O)c(I)c2)c(I)c1)C(=O)O` [LIOTHYRONINE], the 50% inhibitory concentration (IC50) entry (on Glucocorticoid receptor; at D(3) dopamine receptor (cho); in assay [2] (sf9); in assay [3] (cho-k1)) was “Not Active” throughout.

In the case of `OCCN(CCO)c1nc(N2CCCCC2)c2nc(N(CCO)CCO)nc(N3CCCCC3)c2n1` [DIPYRIDAMOLE], the IC50 entry at D(3) dopamine receptor (cho) was “Not Active”; in assay [1] (read-out: IC50), 382 nM; in assay [2] (sf9), “Not Active”; in assay [3] (cho-k1), “Not Active”. In addition, the Ki in assay [1] (read-out: Ki) turned out to be 311 nM.

Consider `O=NN(CCCl)C(=O)NC1CCCCC1` [LOMUSTINE], for which the IC50 result (on D(3) dopamine receptor (cho); in assay [1]; in assay [2] (sf9); in assay [3] (cho-k1)) was “Not Active” throughout. Besides, the Ki entry in assay [1] is reported as “Not Active”.

Take `CSc1ccc(/C=C2/C(C)=C(CC(=O)O)c3cc(F)ccc32)cc1` [SULINDAC SULFIDE]: the IC50 result (on D(3) dopamine receptor (cho); in assay [1]; in assay [2] (sf9); in assay [3] (cho-k1)) was “Not Active” throughout. In addition, the Ki result in assay [1] is given as “Not Active”.

For `CC(=O)[C@@]1(O)CC[C@H]2[C@@H]3C[C@H](C)C4=CC(=O)CC[C@]4(C)[C@H]3CC[C@@]21C`, the IC50 entry (on D(3) dopamine receptor (cho); in assay [1]; in assay [2] (sf9); in assay [3] (cho-k1)) was “Not Active” in each case. Besides, the Ki entry in assay [1] is “Not Active”.

Regarding `Cc1noc(NS(=O)(=O)c2ccc(N)cc2)c1C` [SULFISOXAZOLE], the half-inhibitory concentration (IC50) entry (at D(3) dopamine receptor (cho); in assay [1]; in assay [2] (sf9); in assay [3] (cho-k1)) was “Not Active” in each case. For the same compound, the Ki entry in assay [1] is on record as “Not Active”.

For `CCCCc1oc2ccccc2c1C(=O)c1cc(I)c(OCCN(CC)CC)c(I)c1` [AMIODARONE], the IC50 result on Glucocorticoid receptor is on record as “Not Active”.

`NS(=O)(=O)c1cc2c(cc1Cl)NC(C(Cl)Cl)NS2(=O)=O` (centres undefined) [TRICHLORMETHIAZIDE]: the IC50 entry (at D(3) dopamine receptor (cho); in assay [1]; in assay [2] (sf9); in assay [3] (cho-k1)) was “Not Active” in each case. In assay [1], the Ki entry was “Not Active”.

As for `Nc1c2c(nc3ccccc13)CCCC2` [TACRINE], the IC50 result (at D(3) dopamine receptor (cho); in assay [1]; in assay [2] (sf9); in assay [3] (cho-k1)) was “Not Active” throughout. Moreover, the Ki result in assay [1] was “Not Active”.

For `NC[C@H]1CC[C@H](C(=O)O)CC1` [TRANEXAMIC ACID], the IC50 entry (at D(3) dopamine receptor (cho); in assay [1]; in assay [2] (sf9); in assay [3] (cho-k1)) was “Not Active” in each case. Besides, the Ki entry in assay [1] was “Not Active”.

In the case of `CC(C)N1CCN(c2ccc(OCC3COC(Cn4cncn4)(c4ccc(Cl)cc4Cl)O3)cc2)CC1` (centres undefined) [TERCONAZOLE], the IC50 at D(3) dopamine receptor (read-out: IC50) was 4710 nM; in assay [1], “Not Active”; in assay [2] (read-out: IC50) it was 983 nM. Further, the Ki on D(3) dopamine receptor was 1600 nM; in assay [1] it was “Not Active”; in assay [2], 369 nM.

For the compound `CC/C(=C(\c1ccccc1)c1ccc(OCCN(C)C)cc1)c1ccccc1` [TAMOXIFEN], the IC50 entry against Glucocorticoid receptor was “Not Active”; on D(3) dopamine receptor (read-out: IC50) it was 1070 nM; in assay [2] (read-out: IC50), 1930 nM; in assay [3] (read-out: IC50), 1.84 µM. Besides, the results for the Ki (on D(3) dopamine receptor; in assay [2]; in assay [3]) were 364 nM, 726 nM and 1.46 µM, respectively.

Consider `CO[C@H]1/C=C/O[C@@]2(C)Oc3c(C)c(O)c4c(O)c(c(/C=N/N5CCN(C)CC5)c(O)c4c3C2=O)NC(=O)/C(C)=C\C=C\[C@H](C)[C@H](O)[C@@H](C)[C@@H](O)[C@@H](C)[C@H](OC(C)=O)[C@@H]1C` [RIFAMPIN], for which the IC50 result (on D(3) dopamine receptor (cho); in assay [1]; in assay [2] (sf9); in assay [3] (cho-k1)) was “Not Active” throughout. Besides, the Ki entry in assay [1] is reported as “Not Active”.

As to `N#CC(C#N)=Cc1ccc(O)c(O)c1` [TYRPHOSTIN 23], the IC50 entry (at D(3) dopamine receptor (cho); in assay [1]; in assay [2] (sf9); in assay [3] (cho-k1)) was “Not Active” each time. The Ki entry in assay [1] is on record as “Not Active”.

For orientation: IC50 means the concentration needed to halve the response being measured. The Ki is a measure of affinity in units of concentration, obtained from inhibition or displacement.

The values are drawn from ChEMBL document CHEMBL1909046, “DrugMatrix in vitro pharmacology data”.
